Measurements reported in the supplement of paper PMC11208160.

Assay: recombinant barcode read abundance after kanamycin selection (control-corrected) (log10(CPM+1)); higher = more efficient recombination; sequences stand for … in AGTGCAGAGAAAATCGGCCAGTTTTCTCTGCCTGCAGTCCGCATGCCGT…AGATTTATGCAGCGGACTGCCTTTCTCCCAAAGTGATAAACCGGACAGTATCATGGACCGGTTTTCCCGGTAATCCGTATTTGCAAGGTTGGTTTCACT; site = the 11-nt target
Procedure: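 Pooled E. coli target-specificity screen for the IS621 bridge recombinase. Each library plasmid pairs an 11-nt target (CT core) with a bridge RNA whose target-binding loop (9-nt LTG + 4-nt RTG) is reprogrammed; the rest of the 177-nt WT IS621 bridge RNA scaffold is fixed. The plasmid is co-electroporated with a WT donor plasmid; recombinase is induced with 0.1 mM IPTG and recombinants are selected on kanamycin. Recombinant barcodes are sequenced, converted to CPM, averaged over two biological replicates and corrected by the unselected control CPM. Molecule = full bridge RNA written as DNA: LTG = specificity nt 1-9, RTG = reverse complement of specificity nt 8-11, in the WT scaffold.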
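Further: IS621 recombinase and bridge RNA in Escherichia coli cells.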

| Sequence | recombinant barcode read abundance (log10) |
| --- | --- |
| ACTCACACTTGGGTTCTAACCTGTTGCTT (site GGAGCTCCTCG) | 0.00954 |
| ACTCAGACTTGGGTTCTAACCTGTTGCAC (site ACTCAGACTGT) | 1.9 |
| ACTCAGACTTGGGTTCTAACCTGTTGCAC (site GGAGGTCCTCG) | 0.222 |
| ACTCCAGCTTGGGTTCTAACCTGTTGCCT (site ACTCCAGCTAG) | 1.79 |
| ACTCCAGCTTGGGTTCTAACCTGTTGCCT (site TAGTTTACTCT) | 0.0793 |
| ACTCGTTCTTGGGTTCTAACCTGTTGCTT (site ACTCGTTCTAA) | 0.326 |
| ACTCGTTCTTGGGTTCTAACCTGTTGCTT (site GCTAGTTCTAA) | 0.0673 |
| ACTCTACCTTGGGTTCTAACCTGTTGCTA (site ACCCTCCCTTA) | 0.0533 |
| ACTCTACCTTGGGTTCTAACCTGTTGCTA (site ACTCTACCTTA) | 1.12 |
| ACTCTAGCTTGGGTTCTAACCTGTTGCTC (site ACTCTAGCTGA) | 1.05 |
| ACTCTAGCTTGGGTTCTAACCTGTTGCTC (site GCTCTAGCTTA) | 0.265 |
| ACTCTGTCTTGGGTTCTAACCTGTTGCTT (site ACCCTATCTAA) | 0.124 |
| ACTCTGTCTTGGGTTCTAACCTGTTGCTT (site ACTCTGTCTAA) | 1.86 |
| ACTGATGCTTGGGTTCTAACCTGTTGCCT (site ACTGATACTAG) | 1.08 |
| ACTGATGCTTGGGTTCTAACCTGTTGCCT (site ACTGATCCTAG) | 0.0449 |
| ACTGATGCTTGGGTTCTAACCTGTTGCCT (site ACTGATGCTAG) | 2.09 |
| ACTGATGCTTGGGTTCTAACCTGTTGCCT (site ACTGATTCTAG) | 0.0409 |
| ACTGTATCTTGGGTTCTAACCTGTTGCCT (site ACTGTATCTAG) | 1.13 |
| ACTGTATCTTGGGTTCTAACCTGTTGCCT (site CCTGTATCTAG) | 0.134 |
| ACTGTATCTTGGGTTCTAACCTGTTGCCT (site GCTGTATCTAG) | 0.0734 |
| ACTGTATCTTGGGTTCTAACCTGTTGCCT (site TCTGTATCTAG) | 0.231 |

| Sequence | recombinant barcode read abundance (log10) |
| --- | --- |
| ACTGTCACTTGGGTTCTAACCTGTTGCCT (site ACTGTCACTAG) | 2.36 |
| ACTGTCACTTGGGTTCTAACCTGTTGCCT (site ACTGTGACTAG) | 0.0913 |
| ACTGTGACTTGGGTTCTAACCTGTTGCCT (site ACTGTCACTAG) | 0.317 |
| ACTGTGACTTGGGTTCTAACCTGTTGCCT (site ACTGTGACTAG) | 2.71 |
| ACTTAGACTTGGGTTCTAACCTGTTGCCC (site ACTTAGACTAG) | 0.424 |
| ACTTAGACTTGGGTTCTAACCTGTTGCCC (site ACTTAGACTCG) | 0.333 |
| ACTTAGACTTGGGTTCTAACCTGTTGCCC (site ACTTAGACTGG) | 1.46 |
| ACTTAGACTTGGGTTCTAACCTGTTGCCC (site ACTTAGACTTG) | 0 |
| ACTTAGTCTTGGGTTCTAACCTGTTGCTC (site ACTTAGTCTGA) | 1.04 |
| ACTTAGTCTTGGGTTCTAACCTGTTGCTC (site TGCCCCGCTAG) | 0.0305 |
| ACTTCAACTTGGGTTCTAACCTGTTGCCT (site ACATCAACTAG) | 0.0253 |
| ACTTCAACTTGGGTTCTAACCTGTTGCCT (site ACCTCAACTAG) | 0.026 |
| ACTTCAACTTGGGTTCTAACCTGTTGCCT (site ACGTCAACTAG) | 0.161 |
| ACTTCAACTTGGGTTCTAACCTGTTGCCT (site ACTTCAACTAG) | 0.101 |
| ACTTCACCTTGGGTTCTAACCTGTTGCCT (site ACTTCACCTAG) | 1.02 |
| ACTTCACCTTGGGTTCTAACCTGTTGCCT (site ACTTCTGCTAG) | 0.0689 |
| ACTTCTACTTGGGTTCTAACCTGTTGCCG (site ACTTCTACTCG) | 0.195 |
| ACTTCTACTTGGGTTCTAACCTGTTGCCG (site ACTTCTTCTAG) | 0.204 |
| ACTTGACCTTGGGTTCTAACCTGTTGCGG (site ACTTGACCTCC) | 2.31 |
| ACTTGACCTTGGGTTCTAACCTGTTGCGG (site AGTTAACCTCC) | 0 |
| ACTTGCCCTTGGGTTCTAACCTGTTGCCT (site AATTGCCCTAG) | 0.0465 |

| Sequence | recombinant barcode read abundance (log10) |
| --- | --- |
| ACTTGCCCTTGGGTTCTAACCTGTTGCCT (site ACTTGCCCTAG) | 0.925 |
| ACTTGCCCTTGGGTTCTAACCTGTTGCCT (site AGTTGCCCTAG) | 0.00674 |
| ACTTGCCCTTGGGTTCTAACCTGTTGCCT (site ATTTGCCCTAG) | 0.57 |
| ACTTTGTCTTGGGTTCTAACCTGTTGCCT (site ACATTGTCTAG) | 0.0289 |
| ACTTTGTCTTGGGTTCTAACCTGTTGCCT (site ACCTTGTCTAG) | 0.085 |
| ACTTTGTCTTGGGTTCTAACCTGTTGCCT (site ACGTTGTCTAG) | 0.0449 |
| ACTTTGTCTTGGGTTCTAACCTGTTGCCT (site ACTTTGTCTAG) | 0.596 |
| AGAAACACTTGGGTTCTAACCTGTTGCCT (site AGAAACACTAG) | 1.34 |
| AGAAACACTTGGGTTCTAACCTGTTGCCT (site AGGAACACTAG) | 0.0546 |
| AGAAATTCTTGGGTTCTAACCTGTTGCCT (site AGAAATTCTAG) | 0.52 |
| AGAAATTCTTGGGTTCTAACCTGTTGCCT (site AGCAATTCTAG) | 0.0252 |
| AGAAATTCTTGGGTTCTAACCTGTTGCCT (site AGGAATTCTAG) | 0.111 |
| AGAAATTCTTGGGTTCTAACCTGTTGCCT (site AGTAATTCTAG) | 0.0316 |
| AGAAGTCCTTGGGTTCTAACCTGTTGCTG (site AGAAGTCCTCA) | 1.11 |
| AGAAGTCCTTGGGTTCTAACCTGTTGCTG (site AGAAGTCCTCC) | 0.0845 |
| AGAAGTCCTTGGGTTCTAACCTGTTGCTG (site AGAAGTCCTCG) | 0.0922 |
| AGAAGTCCTTGGGTTCTAACCTGTTGCTG (site AGAAGTCCTCT) | 0.773 |
| AGAATCCCTTGGGTTCTAACCTGTTGCTA (site AGAATCCCTTA) | 1.74 |
| AGAATCCCTTGGGTTCTAACCTGTTGCTA (site GCAATCCCTTA) | 0.106 |
| AGACGTCCTTGGGTTCTAACCTGTTGCGT (site AGACGTCCTAC) | 2.51 |
| AGACGTCCTTGGGTTCTAACCTGTTGCGT (site ATACGTCCTAT) | 0.233 |

| Sequence | recombinant barcode read abundance (log10) |
| --- | --- |
| AGACTAACTTGGGTTCTAACCTGTTGCTT (site AGACTAACTAA) | 0.715 |
| AGACTAACTTGGGTTCTAACCTGTTGCTT (site GGACTAACTAG) | 0.0387 |
| AGACTCTCTTGGGTTCTAACCTGTTGCCT (site AGACTCTCTAG) | 2.01 |
| AGACTCTCTTGGGTTCTAACCTGTTGCCT (site ATACTCTCTAG) | 0.377 |
| AGACTTCCTTGGGTTCTAACCTGTTGCTT (site AGACATCCTAA) | 0.158 |
| AGACTTCCTTGGGTTCTAACCTGTTGCTT (site AGACCTCCTAA) | 0.121 |
| AGACTTCCTTGGGTTCTAACCTGTTGCTT (site AGACGTCCTAA) | 0.0179 |
| AGACTTCCTTGGGTTCTAACCTGTTGCTT (site AGACTTCCTAA) | 0.811 |
| AGAGAGTCTTGGGTTCTAACCTGTTGCCT (site AGAAAGTCTAC) | 0.0903 |
| AGAGAGTCTTGGGTTCTAACCTGTTGCCT (site AGAGAGTCTAG) | 2.53 |
| AGAGGGTCTTGGGTTCTAACCTGTTGCCT (site AAAGGGTCTAG) | 0.21 |
| AGAGGGTCTTGGGTTCTAACCTGTTGCCT (site ACAGGGTCTAG) | 0.731 |
| AGAGGGTCTTGGGTTCTAACCTGTTGCCT (site AGAGGGTCTAG) | 2.79 |
| AGAGGGTCTTGGGTTCTAACCTGTTGCCT (site ATAGGGTCTAG) | 0.765 |
| AGAGGTCCTTGGGTTCTAACCTGTTGCCT (site AGAGGTCCTAG) | 2.04 |
| AGAGGTCCTTGGGTTCTAACCTGTTGCCT (site TGAGGGCCTAG) | 0.169 |
| AGAGTGACTTGGGTTCTAACCTGTTGCCT (site AGAGAGACTAG) | 1 |
| AGAGTGACTTGGGTTCTAACCTGTTGCCT (site AGAGCGACTAG) | 0.0794 |
| AGAGTGACTTGGGTTCTAACCTGTTGCCT (site AGAGGGACTAG) | 0.0448 |
